Tested on: full thickness chondrocytes
Test: In vitro-formed cartilage on membrane inserts: DNA, GAG and collagen contents
Assay type: cell-based, calves
Experimental: Membrane inserts (Millicell-CM®, Millipore Corp., Bedford, Mass., USA) were coated with type II collagen (0.5 mg/ml in 0.1N acetic acid; Sigma Chemical Co., St. Louis, Mo., USA) and dried overnight. The membrane inserts were UV sterilized for 30 minutes and soaked in Ham's F12 for 30 minutes prior to cell culturing.
Cartilage was aseptically excised from the full thickness of metacarpal-phalangeal articular cartilage from 9 to 12 months old calves within 24 hours of death as previously described. For the experiment investigating the response of chondrocytes zonal subpopulations to inorganic polyphosphate, cartilage was excised as the superficial-mid zone (top 70%) and the deep-zone (bottom 30%). Chondrocytes were harvested from the tissue by sequential enzymatic digestion (0.5% protease (Sigma Chemical Co., St. Louis, Mo., USA) for 2 hours followed by 0.1% collagenase (Roche Diagnostics GmbH, Mannheim, Germany) overnight). The cells were then seeded on top of membrane inserts (1×10^6 cells per construct) in Ham's F-12 supplemented with 5% fetal bovine serum (FBS) (HyClone, Logan, Utah, USA) and incubated at 37° C. in an atmosphere characterized by 95% relative humidity and 5% CO2. On day 5, the serum concentration was changed to 20% and supplemented with ascorbic acid (100 μg/ml, Sigma Chemical Co., St. Louis, Mo., USA). At this time, cultures were incubated in the presence or absence of various concentrations of sodium phosphate glasses (inorganic polyphosphate; Sigma Chemical Co., St. Louis, Mo., USA) or sodium phosphate buffer. The concentrations of inorganic polyphosphate utilized for each experiment are calculated based on the phosphate content. Cultures were grown for up to 4 weeks following initiation of the inorganic polyphosphate treatment. […]
In vitro and ex vivo-cultured cartilage tissues were harvested and washed twice in PBS. […] The fluorescence was visualized with a Zeiss Axioplan epifluorescence microscope using a wide pass DAPI filter. […]
Cartilage tissues were digested with papain (Sigma Chemical Co., St. Louis, Mo., USA; 40 μg·ml^−1) in digestion buffer (20 mM ammonium acetate, 1 mM EDTA and 2 mM DTT) for 48 hours at 65° C. […] The DNA content was assessed using the Hoechst 33258 dye (Polysciences Inc., Washington, Pa., USA) binding assay and fluorometry (emission wavelength: 458 nm; excitation wavelength: 365 nm). […]
The proteoglycan and collagen contents of cartilage tissues were also measured from aliquots of the papain digest. The proteoglycan content was estimated by quantifying the amount of sulphated GAG using the dimethylmethylene blue dye (Polysciences Inc., Washington, Pa., USA) binding assay and quantifying the colour spectrophotometrically at 525 nm. […] The collagen content was estimated by quantifying the hydroxyproline. […]

[1] = 1 mM, 2 weeks in culture, normalized to DNA content, mean ± SEM

Question: Which “DNA Content” value (1 mM, 2 weeks in culture, mean ± SEM) does the source give for `O=P(O)(O)O` [Phosphate, sodium phosphate] here?
Answer: 8.5 ± 0.92 µg

Question: And the “Collagen Content” value [1]?
Answer: 105.3 ± 9.5 % of control

Question: And the “GAG Content” value [1]?
Answer: 112.5 ± 14.8 % of control

Question: What about the “DNA, GAG and collagen contents compared to non-supplemented medium” value (concentrations equivalent to those used for polyphosphate, 2 weeks) of the same compound?
Answer: did not significantly alter

Source: patent publication US20130316015A1, “Methods for Repairing Cartilage” (MOUNT SINAI HOSPITAL, priority 2011, published 2013)
